In US20230098332A1, “HETEROCYCLIC DERIVATIVES AS TRMP8 ANTAGONISTS” (Givaudan SA, priority 2020, published 2023):
Where a name gives a salt, the structure may show the parent alone.

Molecular target: T1, hTRPM8 (Homo sapiens, UniProt Q7Z2W7)
T1 construct: expressed in transfected cells
Test: Assay on TRPM8 modulators: calcium imaging (Fluo-4, Flexstation) in HEK293 cell line stably expressing hTRPM8
Format: cell-based
Settings: TRPM8 agonist activity, calcium influx, HEK293 stably expressing hTRPM8, sigmoidal dose-response fit
Method: A HEK293 cell line stably expressing hTRPM8 was generated according to Klein et al., (Chem. Senses 36: 649-658, 2011) and receptor activation was monitored by calcium imaging in a Flexstation. For Ca-imaging assays of TRPM8 channel activation, cells were seeded on day 0 at a density of 12000 cells per well in Dulbecco's modified Eagle medium (DMEM) containing 9% foetal bovine serum in black, clear bottom 96-well plates that had been coated with 0.001% polyethyleneimine (molecular weight=60 000, Acros Organics). On day 2, agonists were evaluated via calcium imaging using Fluo-4. Briefly, growth medium was discarded, and the cells were incubated in the dark for 1 h at 37° C. in 50 μL loading buffer consisting of 2.7 μM Fluo-4 AM (Invitrogen) and […] probenecid (Sigma-Aldrich) in DMEM (without serum). After incubation, the plates were washed five times with 100 μL of assay buffer (in mM: 130 NaCl, 5 KCl, 10 HEPES, 2 CaCl2, and 10 glucose, pH7.4.) and further incubated in the dark at room temperature for 30 min. The cells were then washed five times with 100 μL assay buffer and then calcium influx to serial dilutions of inventive compounds were measured in a Flexstation 3 (Molecular Devices). Receptor activation was initiated following addition of 20 μl of a 10-fold concentrated ligand stock solution, which is also prepared in assay buffer. Fluorescence was continuously monitored for 15 seconds prior to ligand addition and for 105 seconds after ligand addition, for a total of 120 seconds. Maximal receptor activation in relation to solvent control and relative to 31.6 μM menthol is determined. Data from serial dilutions were processed with a KNIME workflow to fit a sigmoidal dose-response curve and to extrapolate EC50 values.

T1 sequence (Q7Z2W7 whole entry): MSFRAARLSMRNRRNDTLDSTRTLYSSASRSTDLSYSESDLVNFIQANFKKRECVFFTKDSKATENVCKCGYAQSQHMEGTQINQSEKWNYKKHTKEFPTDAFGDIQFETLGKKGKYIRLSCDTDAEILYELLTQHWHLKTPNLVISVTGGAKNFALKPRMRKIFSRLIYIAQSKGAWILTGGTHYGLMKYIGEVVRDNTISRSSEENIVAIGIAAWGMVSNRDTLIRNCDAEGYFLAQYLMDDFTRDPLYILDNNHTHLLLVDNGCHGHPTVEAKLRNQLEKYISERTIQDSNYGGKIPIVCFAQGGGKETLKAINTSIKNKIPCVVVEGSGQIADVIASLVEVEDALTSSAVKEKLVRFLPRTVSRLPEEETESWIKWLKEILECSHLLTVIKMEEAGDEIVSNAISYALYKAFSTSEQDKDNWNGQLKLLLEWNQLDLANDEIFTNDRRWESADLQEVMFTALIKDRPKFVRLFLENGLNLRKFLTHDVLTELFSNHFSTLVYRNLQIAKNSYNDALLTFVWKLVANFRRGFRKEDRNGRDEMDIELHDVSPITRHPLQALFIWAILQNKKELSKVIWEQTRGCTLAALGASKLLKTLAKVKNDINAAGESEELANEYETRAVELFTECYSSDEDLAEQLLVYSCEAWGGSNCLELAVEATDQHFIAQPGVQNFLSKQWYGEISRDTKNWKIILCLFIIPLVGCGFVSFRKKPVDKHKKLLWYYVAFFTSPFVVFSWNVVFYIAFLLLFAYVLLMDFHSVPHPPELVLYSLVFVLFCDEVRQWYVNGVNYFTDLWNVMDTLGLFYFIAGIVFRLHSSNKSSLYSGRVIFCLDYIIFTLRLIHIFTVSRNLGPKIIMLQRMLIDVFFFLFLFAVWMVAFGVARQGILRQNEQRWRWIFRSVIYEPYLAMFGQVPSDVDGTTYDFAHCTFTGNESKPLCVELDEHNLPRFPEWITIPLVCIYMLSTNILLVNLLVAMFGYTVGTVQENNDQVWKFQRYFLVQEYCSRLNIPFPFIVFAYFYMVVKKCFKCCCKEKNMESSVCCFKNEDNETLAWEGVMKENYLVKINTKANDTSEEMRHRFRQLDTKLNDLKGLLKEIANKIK

Row | SMILES | EC50 [µM]
1 | Cc1cc(C)c(OCCN2CCN(C)CC2)c(Cc2ccncc2)c1 [compound 65, 1-(2-(2,4-dimethyl-6-(pyridin-4-ylmethyl)phenoxy)ethyl)-4-methylpiperazine] | 1 to 35
2 | Cc1cc(C)c(OCCN2CCN(C)CC2)c(Cc2cccc(C#N)c2)c1 [compound 139, 3-(3,5-dimethyl-2-(2-(4-methylpiperazin-1-yl)ethoxy)benzyl)benzonitrile dihydrochloride] | 1 to 35
3 | Cc1cc(C)c(OCCN2CCOCC2)c(Cc2cc(F)cc(F)c2)c1 [compound 154, 4-(2-(2-(3,5-difluorobenzyl)-4,6-dimethylphenoxy)ethyl)morpholine] | 0.3 to 1
4 | Cc1cc(C)c(OCCN2CCOCC2)c(Cc2c(Cl)cccc2Cl)c1 [compound 148, 4-(2-(2-(2,6-dichlorobenzyl)-4,6-dimethylphenoxy)ethyl)morpholine] | 0.3 to 1
5 | Cc1ccc(OCCN2CC[S+]([O-])CC2)c(Cc2ccccc2)c1 [compound 160, 4-(2-(2-benzyl-4-methylphenoxy)ethyl)thiomorpholine 1-oxide] | 1 to 35
6 | Cc1ccc(O)c(Cc2cc(C)ccc2OCCN2CCN(C)CC2)c1 [compound 163, 4-methyl-2-(5-methyl-2-(2-(4-methylpiperazin-1-yl)ethoxy)benzyl)phenol] | 1 to 35
7 | Cc1ccc(NCCN2CCOCC2)c(Cc2c(F)cccc2F)c1 [compound 110, 2-(2,6-difluorobenzyl)-4-methyl-N-(2-morpholinoethyl)aniline] | 0.3 to 1
8 | Cc1cc(C)c(OCCN2CCN(C)CC2)c(Cc2ccccc2I)c1 [compound 57, 1-(2-(2-(2-iodobenzyl)-4,6-dimethylphenoxy)ethyl)-4-methylpiperazine] | 0.3 to 1
9 | Cc1ccc(OCCN2CCN(C)CC2)c(C(C)c2ccccc2)c1 (stereo not shown) [compound 101, 1-methyl-4-(2-(4-methyl-2-(1-phenylethyl)phenoxy)ethyl)piperazine] | 0.3 to 1
10 | Cc1ccc(CC(O)CN2CCN(C)CC2)c(Cc2ccccc2)c1 (stereo not shown) [compound 97, 1-(2-benzyl-4-methylphenyl)-3-(4-methylpiperazin-1-yl)propan-2-ol] | 0.3 to 1
11 | CCc1ccc(OCCN2CCN(C)CC2)c(Cc2ccccc2)c1 [compound 74, 1-(2-(2-benzyl-4-ethylphenoxy)ethyl)-4-methylpiperazine hydrochloride] | 0.3 to 1
12 | Cc1ccc(OC(=O)CN2CCN(C)CC2)c(Cc2ccccc2)c1 [compound 136, 2-benzyl-4-methylphenyl 2-(4-methylpiperazin-1-yl)acetate] | 1 to 35
13 | Cc1cc(C)c(OCCN2CCOCC2)cc1Cc1c(F)c(F)c(F)c(F)c1F [compound 155, 4-(2-(2,4-dimethyl-5-((perfluorophenyl)methyl)phenoxy)ethyl)morpholine] | 1 to 35

Now from value to molecule:

Row | EC50 [µM] | SMILES
14 | 0.3 to 1 | Cc1cc(C)c(OCCN2CCOCC2)c(Cc2ccccc2[N+](=O)[O-])c1 [compound 157, 4-(2-(2,4-dimethyl-6-(2-nitrobenzyl)phenoxy)ethyl)morpholine]
15 | 0.3 to 1 | Cc1ccc(OCC(C)N2CCOCC2)c(Cc2ccccc2C#N)c1 (stereo not shown) [compound 132, 2-(5-methyl-2-(2-morpholinopropoxy)benzyl)benzonitrile]
16 | < 0.05 | Cc1ccc(N(C)CCN2CCOCC2)c(Cc2c(F)cccc2F)c1 [compound 112, 2-(2,6-difluorobenzyl)-N,4-dimethyl-N-(2-morpholinoethyl)aniline]
17 | 0.05 to 0.3 | Cc1cc(C)c(OCCN2CCOCC2)c(Cc2c(F)cccc2C#N)c1 [compound 120, 2-(3,5-dimethyl-2-(2-morpholinoethoxy)benzyl)-3-fluorobenzonitrile]
18 | 0.05 to 0.3 | Cc1ccc(OCCN2CCN(C)CC2)c(Cc2ccccc2Cl)c1 [compound 55, 1-(2-(2-(2-chlorobenzyl)-4-methylphenoxy)ethyl)-4-methylpiperazine]
19 | 0.05 to 0.3 | Cc1cc(C)c(OCC(C)N2CCOCC2)c(Cc2ccccc2C#N)c1 (stereo not shown) [compound 48, 2-(3,5-dimethyl-2-(2-morpholinopropoxy)benzyl)benzonitrile]
